The values below are quoted from earlier work in patent US9486545B2, “Method of screening for colon cancer using biomarkers” (H. Lee Moffitt Cancer Center and Research Institute, Inc., priority 2011, dated 2016).

As a reminder, the IC50 is the point on the concentration scale where inhibition reaches its midpoint.

This series has as its system TLR4.

Structures are written as SMILES.

On to `CCOC(=O)C1=CCCC[C@H]1S(=O)(=O)Nc1ccc(F)cc1Cl` [TAK 242, ethyl (6R)-6-[N-(2-Chloro-4-fluorophenyl)sulfamoyl]cyclohex-1-ene-1-carboxylate], for which the half-inhibitory concentration (IC50) was 3.2 nM.
